From patent US7034056B2, “Aryl and biaryl compounds having MCH modulatory activity” (Pharmacopeia Drug Discovery, inc., priority 2001, dated 2006)

target: T1, hMCHR (MCH receptor) (Homo sapiens, UniProt Q99705); assay: MCH Assay PCOP Protocol ([125I]-MCH SPA binding to hMCHR-CHO membranes); conditions: [125I]-MCH 0.5 nM, hMCHR-CHO membranes; read-out: Activity (ranges of Ki values);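 on Activity (Ki range): A 0.4–50 nM B 51–500 nM C 501–2500 nM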
T1 construct: (or internally produced); host or cells: CHO (Chinese hamster ovary) cells, membrane preparation
Description: A reaction mixture of 10 μg hMCHR-CHO overexpressing membranes (from Receptor Biology, Inc., Beltsville, Md., or internally produced) and 100 μg/well WGA-SPA beads (from Amersham Pharmacia Biotech, Inc., Piscataway, N.J.)/100 μl was prepared in MCHR assay buffer (25 mM HEPES, pH 7.4, 10 mM NaCl, 10 mM MgCl2, 5 mM MnCl2, 0.1% BSA). […] The assay plates were shaken for 5 minutes on a plate shaker, then incubated for 2 hours before cpm/well were determined in a Microbeta Trilux counter (from PerkinElmer Wallac, Inc., Gaithersburg, Md.).

T1 sequence (Q99705 whole entry): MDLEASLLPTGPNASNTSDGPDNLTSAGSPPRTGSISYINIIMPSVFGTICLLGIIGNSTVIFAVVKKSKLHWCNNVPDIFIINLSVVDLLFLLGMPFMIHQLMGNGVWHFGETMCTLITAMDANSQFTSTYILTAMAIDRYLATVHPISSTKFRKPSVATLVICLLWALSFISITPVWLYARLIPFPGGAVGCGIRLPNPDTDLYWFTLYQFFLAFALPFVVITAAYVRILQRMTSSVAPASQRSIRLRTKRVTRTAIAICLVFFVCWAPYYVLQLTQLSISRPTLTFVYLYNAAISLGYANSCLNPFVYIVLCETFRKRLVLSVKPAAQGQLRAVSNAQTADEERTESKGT

Row | Compound | Ki
1 | COc1cscc1C(=O)NC1CCN(CCC(CNC(=O)Nc2cc(Cl)cc(Cl)c2)c2ccc(C)cc2)CC1 (centres unmarked) [Example 203] | 501 to 2500 nM
2 | CS(=O)(=O)NC1CCN(CCC(CNC(=O)Nc2cc(Cl)cc(Cl)c2)c2ccc(Cl)cc2)C1 (centres unmarked) [Example 204] | 501 to 2500 nM
3 | Cc1ccc(C(CCN2CCC(NC(=O)c3ccno3)CC2)CNC(=O)Nc2cc(Cl)cc(Cl)c2)cc1 (centres unmarked) [Example 205] | 501 to 2500 nM
4 | CC(=O)NC1CCN(CCC(CNC(=O)Nc2cc(Cl)cc(Cl)c2)c2ccc(C)cc2)CC1 (centres unmarked) [Example 206] | 501 to 2500 nM
5 | Cc1ccc(C(CCN2CCC(NS(C)(=O)=O)C2)CNC(=O)Nc2cc(Cl)cc(Cl)c2)cc1 (centres unmarked) [Example 207] | 501 to 2500 nM
6 | COCC(=O)NC1CCN(CCC(CNC(=O)Nc2cc(Cl)cc(Cl)c2)c2ccc(C)cc2)C1 (centres unmarked) [Example 208] | 501 to 2500 nM
7 | O=C(NCC(CCN1CCC(NC(=O)c2ccno2)C1)c1ccc(Cl)c(Cl)c1)Nc1cc(Cl)cc(Cl)c1 (centres unmarked) [Example 209] | 501 to 2500 nM
8 | CC(=O)NC1CCN(CCC(CNC(=O)Nc2cc(Cl)cc(Cl)c2)c2ccc(Cl)c(Cl)c2)C1 (centres unmarked) [Example 210] | 501 to 2500 nM
9 | CS(=O)(=O)NC1CCN(CCC(CNC(=O)Nc2cc(Cl)cc(Cl)c2)c2ccc(Cl)c(Cl)c2)C1 (centres unmarked) [Example 211] | 501 to 2500 nM
10 | O=C(NCC(CCN1CCC(NC(=O)c2cccs2)CC1)c1ccc(Cl)c(Cl)c1)Nc1cc(Cl)cc(Cl)c1 (centres unmarked) [Example 212] | 501 to 2500 nM
11 | COCC(=O)NC1CCN(CCC(CNC(=O)Nc2cc(Cl)cc(Cl)c2)c2ccc(C)cc2)CC1 (centres unmarked) [Example 213] | 501 to 2500 nM
12 | O=C(NCC(CCN1CCC(NC(=O)c2ccno2)CC1)c1ccc(Cl)cc1)Nc1cc(Cl)cc(Cl)c1 (centres unmarked) [Example 214] | 501 to 2500 nM
13 | CC(=O)NC1CCN(CCC(CNC(=O)Nc2cc(Cl)cc(Cl)c2)c2ccc(C)cc2)C1 (centres unmarked) [Example 215] | 501 to 2500 nM
14 | O=C(NCC(CCN1CCC(NC(=O)c2cccs2)CC1)c1ccc(Cl)cc1)Nc1cc(Cl)cc(Cl)c1 (centres unmarked) [Example 216] | 501 to 2500 nM

More lines, now with the values ahead:

Row | Ki | Compound
15 | 501 to 2500 nM | CN(C)CCCNCCC(CNC(=O)Nc1cc(Cl)cc(Cl)c1)c1cccc(-c2ccccc2)c1 (centres unmarked) [Example 171]
16 | 501 to 2500 nM | CN(C)CCCNCCC(CNC(=O)Nc1cc(Cl)cc(Cl)c1)c1cccc(-c2cccnc2)c1 (centres unmarked) [Example 172]
17 | 501 to 2500 nM | CN(C)CCCNCCC(CNC(=O)Nc1cc(Cl)cc(Cl)c1)c1cccc(-c2cccc(F)c2)c1 (centres unmarked) [Example 173]
18 | 501 to 2500 nM | COc1ccccc1-c1cccc(C(CCNCCCN(C)C)CNC(=O)Nc2cc(Cl)cc(Cl)c2)c1 (centres unmarked) [Example 174]
19 | 501 to 2500 nM | CN(C)CCCNCCC(CNC(=O)Nc1cc(Cl)cc(Cl)c1)c1cccc(-c2cc(C(F)(F)F)cc(C(F)(F)F)c2)c1 (centres unmarked) [Example 175]
20 | 501 to 2500 nM | CN(C)CCCNCCC(CNC(=O)Nc1cc(Cl)cc(Cl)c1)c1cccc(-c2ccccc2Cl)c1 (centres unmarked) [Example 176]
21 | 51 to 500 nM | CCNC(=O)N1CCC(NCCC(CNC(=O)Nc2cc(Cl)cc(Cl)c2)c2ccc(Cl)cc2)C1 (centres unmarked) [Example 177]
22 | 51 to 500 nM | O=C(NCC(CCN1CCC(NC(=O)C2CCC2)C1)c1ccc(Cl)cc1)Nc1cc(Cl)cc(Cl)c1 (centres unmarked) [Example 178]
23 | 51 to 500 nM | CS(=O)(=O)NC1CCN(CCC(CNC(=O)Nc2cc(Cl)cc(Cl)c2)c2ccc(Cl)cc2)CC1 (centres unmarked) [Example 179]
24 | 51 to 500 nM | CCNC(=O)N1CCC(NCCC(CNC(=O)Nc2cc(Cl)cc(Cl)c2)c2ccc(C)cc2)C1 (centres unmarked) [Example 180]
25 | 51 to 500 nM | O=C(NCC(CCN1CCC(NC(=O)C2CCC2)C1)c1ccc(Cl)c(Cl)c1)Nc1cc(Cl)cc(Cl)c1 (centres unmarked) [Example 181]
26 | 51 to 500 nM | CCNC(=O)N1CCC(NCCC(CNC(=O)Nc2cc(Cl)cc(Cl)c2)c2ccc(Cl)c(Cl)c2)C1 (centres unmarked) [Example 182]
27 | 51 to 500 nM | O=C(NCC(CCN1CCC(NC(=O)c2cccs2)C1)c1ccc(Cl)cc1)Nc1cc(Cl)cc(Cl)c1 (centres unmarked) [Example 183]
28 | 51 to 500 nM | Cc1ccc(C(CCN2CCC(NC(=O)C3CCC3)C2)CNC(=O)Nc2cc(Cl)cc(Cl)c2)cc1 (centres unmarked) [Example 184]
29 | 51 to 500 nM | O=C(NCC(CCN1CCC(NC(=O)C2CCC2)CC1)c1ccc(Cl)cc1)Nc1cc(Cl)cc(Cl)c1 (centres unmarked) [Example 185]
30 | 51 to 500 nM | CC(=O)NC1CCN(CCC(CNC(=O)Nc2cc(Cl)cc(Cl)c2)c2ccc(Cl)cc2)C1 (centres unmarked) [Example 186]

Row | Ki | Compound
31 | 51 to 500 nM | Cc1ccc(C(CCN2CCC(NC(=O)C3CCC3)CC2)CNC(=O)Nc2cc(Cl)cc(Cl)c2)cc1 (centres unmarked) [Example 187]
32 | 51 to 500 nM | COCC(=O)NC1CCN(CCC(CNC(=O)Nc2cc(Cl)cc(Cl)c2)c2ccc(Cl)c(Cl)c2)C1 (centres unmarked) [Example 188]
33 | 51 to 500 nM | O=C(NCC(CCN1CCC(NC(=O)c2cccs2)C1)c1ccc(Cl)c(Cl)c1)Nc1cc(Cl)cc(Cl)c1 (centres unmarked) [Example 190]
34 | 51 to 500 nM | O=C(NCC(CCN1CCC(NC(=O)C2CCC2)CC1)c1ccc(Cl)c(Cl)c1)Nc1cc(Cl)cc(Cl)c1 (centres unmarked) [Example 191]
35 | 51 to 500 nM | COCC(=O)NC1CCN(CCC(CNC(=O)Nc2cc(Cl)cc(Cl)c2)c2ccc(Cl)cc2)CC1 (centres unmarked) [Example 192]
36 | 51 to 500 nM | O=C(NCC(CCN1CCC(NC(=O)c2ccno2)C1)c1ccc(Cl)cc1)Nc1cc(Cl)cc(Cl)c1 (centres unmarked) [Example 193]
37 | 51 to 500 nM | COCC(=O)NC1CCN(CCC(CNC(=O)Nc2cc(Cl)cc(Cl)c2)c2ccc(Cl)cc2)C1 (centres unmarked) [Example 194]
38 | 51 to 500 nM | COCC(=O)NC1CCN(CCC(CNC(=O)Nc2cc(Cl)cc(Cl)c2)c2ccc(Cl)c(Cl)c2)CC1 (centres unmarked) [Example 195]
39 | 51 to 500 nM | CC(=O)NC1CCN(CCC(CNC(=O)Nc2cc(Cl)cc(Cl)c2)c2ccc(Cl)cc2)CC1 (centres unmarked) [Example 196]
40 | 51 to 500 nM | COc1cscc1C(=O)NC1CCN(CCC(CNC(=O)Nc2cc(Cl)cc(Cl)c2)c2ccc(Cl)cc2)C1 (centres unmarked) [Example 197]
41 | 51 to 500 nM | Cc1ccc(C(CCN2CCC(NC(=O)c3cccs3)CC2)CNC(=O)Nc2cc(Cl)cc(Cl)c2)cc1 (centres unmarked) [Example 198]
42 | 51 to 500 nM | CC(=O)NC1CCN(CCC(CNC(=O)Nc2cc(Cl)cc(Cl)c2)c2ccc(Cl)c(Cl)c2)CC1 (centres unmarked) [Example 199]
43 | 501 to 2500 nM | COc1cscc1C(=O)NC1CCN(CCC(CNC(=O)Nc2cc(Cl)cc(Cl)c2)c2ccc(Cl)c(Cl)c2)C1 (centres unmarked) [Example 200]
44 | 501 to 2500 nM | COc1cscc1C(=O)NC1CCN(CCC(CNC(=O)Nc2cc(Cl)cc(Cl)c2)c2ccc(Cl)cc2)CC1 (centres unmarked) [Example 201]
45 | 501 to 2500 nM | Cc1ccc(C(CCN2CCC(NC(=O)c3ccno3)C2)CNC(=O)Nc2cc(Cl)cc(Cl)c2)cc1 (centres unmarked) [Example 202]

same assay, conditions: [125I]-MCH binding to hMCHR-CHO membranes; class symbols for ranges of Ki; read-out: Activity (Ki range)

Row | Ki | Compound
46 | 501 to 2500 nM | O=C(NCC(CCN1CCC(NC(=O)c2ccno2)CC1)c1ccc(Cl)c(Cl)c1)Nc1cc(Cl)cc(Cl)c1 (centres unmarked) [Example 217]
47 | 0.4 to 50 nM | CN(C)CCCNCCC(CNC(=O)Nc1cc(Cl)cc(Cl)c1)c1ccc(-c2cccc(C#N)c2)cc1 (centres unmarked) [Example 218]
48 | 0.4 to 50 nM | CN(C)CCCNCCC(CNC(=O)Nc1cc(Cl)cc(Cl)c1)c1ccc(-c2cccc([N+](=O)[O-])c2)cc1 (centres unmarked) [Example 220]
49 | 0.4 to 50 nM | CN(C)CCCNCCC(CNC(=O)Nc1cc(Cl)cc(Cl)c1)c1ccc(-c2cccc(Cl)c2)cc1 (centres unmarked) [Example 221]
50 | 0.4 to 50 nM | CN(C)CCCNCCC(CNC(=O)Nc1cc(Cl)cc(Cl)c1)c1ccc(-c2ccc3c(c2)OCO3)cc1 (centres unmarked) [Example 223]
51 | 0.4 to 50 nM | CN(C)CCCNCCC(CNC(=O)Nc1cc(Cl)cc(Cl)c1)c1ccc(-c2ccc(F)c(Cl)c2)cc1 (centres unmarked) [Example 224]
52 | 51 to 500 nM | O=C(NCC(CCNC1CCCC1)c1ccc(-c2ccc(F)c(Cl)c2)cc1)Nc1cc(Cl)cc(Cl)c1 (centres unmarked) [Example 226]
53 | 51 to 500 nM | O=C(NCC(CCNC1CCCC1)c1ccc(-c2ccc3c(c2)OCO3)cc1)Nc1cc(Cl)cc(Cl)c1 (centres unmarked) [Example 227]
